Measured values published in patent publication US6743440B1, “Polycyclic quinone and ionophore composition for the synergistic reduction of methane formation in ruminant animals” (Arkion Life Sciences LLC, priority 1999, dated 2004).
Marks after values point to notes of the source that are not given here.

System: rumen fluid
Test: in vitro batch culture ruminal fermentation
Type: cell-based, steer
Details: for decrease of methane production compared to the control diet: dose effect experiment; for Hydrogen / Methane / NH3—N / TVFA (total volatile fatty acids) / Total Gas / VFA C2 (acetate) / VFA C3 (propionate) / VFA C4 (butyrate) / VFA C5 (valerate) / VFA Ci4 (isobutyrate) / VFA Ci5 (isovalerate): high sulfur diet (1.09% S), 24 h, MoO4 25 ppm, M 5 ppm, M + AQ 5 + 10 ppm
[1] = AQ 10 ppm, Ionophores 5 ppm, AQ plus Ionophore 10 + 5 ppm
[2] = intermediate and high levels of 9,10 AQ, P<0.05

Compound | Methane Concentration [1] [Umole/24 hr. fermentation] | Hydrogen (AQ 10 ppm) | Methane (AQ 10 ppm) | NH3—N (AQ 10 ppm) | TVFA (total volatile fatty acids) (AQ 10 ppm) | Total Gas (AQ 10 ppm) | VFA C2 (acetate) (AQ 10 ppm) | VFA C3 (propionate) (AQ 10 ppm) | VFA C4 (butyrate) (AQ 10 ppm) | VFA C5 (valerate) (AQ 10 ppm) | VFA Ci4 (isobutyrate) (AQ 10 ppm) | VFA Ci5 (isovalerate) (AQ 10 ppm) | other results
O=C1c2ccccc2C(=O)c2ccccc21 [AQ, 9,10-anthraquinone] | 265 | 4.27^ab μMoles/24 h fermentation | 265^b μMoles/24 h fermentation | 37.2^a mg/dl | 118.0^c mM | 89.2^cb mL/24 h fermentation | 48.4^d moles/100 mol | 28.1^b moles/100 mol | 17.3^a moles/100 mol | 3.3^b moles/100 mol | 1.2^ab moles/100 mol | 1.7^b moles/100 mol | Total VFA relative to the control and untreated high sulfur diet (9,10 AQ dose effect experiment): numerically but not statistically decreased; hydrogen concentration (9,10 AQ dose effect experiment): unaffected; decrease of methane production compared to the control diet (10 ppm 9,10 AQ): 21%; decrease of methane production compared to the control diet (25 ppm 9,10 AQ): 41%; activity at 10 ppm (AQ 10 ppm, Ionophores 5 ppm, AQ plus Ionophore 10 + 5 ppm, control = 403, read-out: Methane concentration, Percent of Control): 66%; ammonia-N (highest level of 9,10 AQ, P<0.05): decreased; percentages of C3, C4 and C5 (intermediate and high levels of 9,10 AQ): increased; molar proportion of C2 [2]: decreased; total gas produced [2]: decreased; effect on fermentation end-products compared to the untreated diets (low level of 9,10 AQ (1 ppm)): no effect
CC[C@@]1([C@H]2O[C@H]([C@H]3O[C@@](O)(CO)[C@H](C)C[C@@H]3C)C[C@H]2C)CC[C@H]([C@@]2(C)CC[C@]3(C[C@H](O)[C@@H](C)[C@@H]([C@H](C)[C@H](OC)[C@@H](C)C(=O)[O-])O3)O2)O1.[Na+] [M, monensin sodium] | 299 | 4.17^ab μMoles/24 h fermentation | 299^b μMoles/24 h fermentation | 36.0^a mg/dl | 117.5^c mM | 85.2^c mL/24 h fermentation | 52.4^c moles/100 mol | 28.0^b moles/100 mol | 13.6^d moles/100 mol | 3.0^c moles/100 mol | 1.3^ab moles/100 mol | 1.7^b moles/100 mol | Methane concentration, Percent of Control (AQ 10 ppm, Ionophores 5 ppm, AQ plus Ionophore 10 + 5 ppm, control = 403): 74%
[O]=[Mo](=[O])([O-])[O-] [MoO4] | – | 4.13^ab μMoles/24 h fermentation | 451^a μMoles/24 h fermentation | 37.9^a mg/dl | 123.9^b mM | 94.1^ab mL/24 h fermentation | 55.2^b moles/100 mol | 24.2^c moles/100 mol | 15.1^c moles/100 mol | 2.7^d moles/100 mol | 1.2^b moles/100 mol | 1.6^b moles/100 mol | –
